From patent US10101655B2, “Compound, polymer, photosensitive resin composition, and color filter” (SAMSUNG SDI CO., LTD., priority 2016, dated 2018)

Assay: Evaluation 1: Solubility Measurement (dissolution state in dilution solvents)
Type: physicochemical
Details: stirred at 25° C. and 100 rpm for one hour; for Amount of dissolved compound (wt %), CH2Cl2: solvent CH2Cl2 added to 0.5 g of compound; for Amount of dissolved compound (wt %), MeOH: solvent MeOH added to 0.5 g of compound; for Amount of dissolved compound (wt %), Cyclohexanone: solvent cyclohexanone added to 0.5 g of compound
Procedure: Evaluation 1: Solubility Measurement
Dilution solvents (MeOH, CH2Cl2, cyclohexanone) were respectively added to 0.5 g of the compounds represented by Chemical Formula 6-1 to Chemical Formula 17-2 and the compound represented by Chemical Formula X-1, and each solution was stirred with Mixrotar VMR-5 (Iuchi Seieido Co., Ltd.) at 25° C. and 100 rpm for one hour.

| Compound | Amount of dissolved compound (wt %), CH2Cl2 [% wt %] | Amount of dissolved compound (wt %), MeOH [% wt %] | Amount of dissolved compound (wt %), Cyclohexanone [% wt %] |
| --- | --- | --- | --- |
| C=C(C)C(=O)OCCNC(=O)OCCN(CCCC)c1ccc2c(-c3ccccc3S(=O)(=O)[O-])c3cc/c(=[N+](\CC)CCCC)cc-3oc2c1 [Chemical Formula 7-1] | >10 | >10 | >3 |
| CCN(CCOC(=O)Nc1ccccc1)c1ccc2c(-c3ccccc3S(=O)(=O)[O-])c3ccc(=[N+](CC)CC)cc-3oc2c1 [Chemical Formula 9-1] | >10 | >10 | >1 |
| C=C(C)C(=O)OCCNC(=O)OCCN(CC)c1ccc2c(-c3ccccc3S(=O)(=O)[O-])c3cc/c(=[N+](/CC)CCOC(=O)NCCOC(=O)C(=C)C)cc-3oc2c1 [Chemical Formula 10-1] | >10 | >10 | >5 |
| C=C(C)C(=O)OCCNC(=O)OCCN(CCCC)c1ccc2c(-c3ccccc3S(=O)(=O)[O-])c3cc/c(=[N+](/CCCC)CCOC(=O)NCCOC(=O)C(=C)C)cc-3oc2c1 [Chemical Formula 11-1] | >10 | >10 | >5 |
| C=C(C)C(=O)OCCNC(=O)OCCN(CCCC)c1ccc2c(-c3ccccc3S(=O)(=O)[N-]S(=O)(=O)C(F)(F)F)c3cc/c(=[N+](/CCCC)CCOC(=O)NCCOC(=O)C(=C)C)cc-3oc2c1 [Chemical Formula 11-2] | >10 | >10 | >5 |
| CCN(CCOC(=O)Nc1ccccc1)c1ccc2c(-c3ccccc3S(=O)(=O)[O-])c3cc/c(=[N+](/CC)CCOC(=O)Nc4ccccc4)cc-3oc2c1 [Chemical Formula 13-1] | >10 | >10 | >3 |
| C=CC(=O)OCCNC(=O)OCCN(CC)c1ccc2c(-c3ccccc3S(=O)(=O)[O-])c3cc/c(=[N+](/CC)CCOC(=O)NCCOC(=O)C=C)cc-3oc2c1 [Chemical Formula 14-1] | >10 | >10 | >5 |
| C=CC(=O)OCCNC(=O)OCCN(CC)c1ccc2c(-c3ccccc3S(=O)(=O)[N-]S(=O)(=O)C(F)(F)F)c3cc/c(=[N+](/CC)CCOC(=O)NCCOC(=O)C=C)cc-3oc2c1 [Chemical Formula 14-2] | >10 | >10 | >5 |
| C=C(C)c1cccc(C(C)(C)NC(=O)OCCN(CC)c2ccc3c(-c4ccccc4S(=O)(=O)[O-])c4cc/c(=[N+](/CC)CCOC(=O)NC(C)(C)c5cccc(C(=C)C)c5)cc-4oc3c2)c1 [Chemical Formula 15-1] | >10 | >10 | >5 |
| C=C(C)c1cccc(C(C)(C)NC(=O)OCCN(CC)c2ccc3c(-c4ccccc4S(=O)(=O)[N-]S(=O)(=O)C(F)(F)F)c4cc/c(=[N+](/CC)CCOC(=O)NC(C)(C)c5cccc(C(=C)C)c5)cc-4oc3c2)c1 [Chemical Formula 15-2] | >10 | >10 | >5 |
| CCN(CCOC(=O)NC1CCCCC1)c1ccc2c(-c3ccccc3S(=O)(=O)[O-])c3ccc(=[N+](CC)CC)cc-3oc2c1 [Chemical Formula 16-1] | >10 | >10 | >1 |
| CCN(CCOC(=O)NC1CCCCC1)c1ccc2c(-c3ccccc3S(=O)(=O)[N-]S(=O)(=O)C(F)(F)F)c3ccc(=[N+](CC)CC)cc-3oc2c1 [Chemical Formula 16-2] | >10 | >10 | >1 |
| CCN(CCOC(=O)NC1CCCCC1)c1ccc2c(-c3ccccc3S(=O)(=O)[O-])c3cc/c(=[N+](/CC)CCOC(=O)NC4CCCCC4)cc-3oc2c1 [Chemical Formula 17-1] | >10 | >10 | >3 |
| CCN(CCOC(=O)NC1CCCCC1)c1ccc2c(-c3ccccc3S(=O)(=O)[N-]S(=O)(=O)C(F)(F)F)c3cc/c(=[N+](/CC)CCOC(=O)NC4CCCCC4)cc-3oc2c1 [Chemical Formula 17-2] | >10 | >10 | >3 |
| CCN(CC)c1ccc2c(-c3ccccc3S(=O)(=O)O)c3ccc(=[N+](CC)CC)cc-3oc2c1 [Chemical Formula X-1, reference compound] | <1 | >10 | <1 |

Other lines, results leading:

| Amount of dissolved compound (wt %), CH2Cl2 [% wt %] | Amount of dissolved compound (wt %), MeOH [% wt %] | Amount of dissolved compound (wt %), Cyclohexanone [% wt %] | Compound |
| --- | --- | --- | --- |
| >10 | >10 | >3 | C=C(C)C(=O)OCCNC(=O)OCCN(CC)c1ccc2c(-c3ccccc3S(=O)(=O)[O-])c3ccc(=[N+](CC)CC)cc-3oc2c1 [Chemical Formula 6-1] |
| >10 | >10 | >3 | C=C(C)C(=O)OCCNC(=O)OCCN(CC)c1ccc2c(-c3ccccc3S(=O)(=O)[N-]S(=O)(=O)C(F)(F)F)c3ccc(=[N+](CC)CC)cc-3oc2c1 [Chemical Formula 6-2] |
| >10 | >10 | >3 | C=C(C)C(=O)OCCNC(=O)OCCN(CCCC)c1ccc2c(-c3ccccc3S(=O)(=O)[N-]S(=O)(=O)C(F)(F)F)c3cc/c(=[N+](\CC)CCCC)cc-3oc2c1 [Chemical Formula 7-2] |
| >10 | >10 | >3 | C=C(C)C(=O)OCCNC(=O)OCCN(CC)c1ccc2c(-c3ccccc3S(=O)(=O)[O-])c3cc/c(=[N+](\CC)c4ccccc4)cc-3oc2c1 [Chemical Formula 8-1] |
| >10 | >10 | >3 | C=C(C)C(=O)OCCNC(=O)OCCN(CC)c1ccc2c(-c3ccccc3S(=O)(=O)[N-]S(=O)(=O)C(F)(F)F)c3cc/c(=[N+](\CC)c4ccccc4)cc-3oc2c1 [Chemical Formula 8-2] |
| >10 | >10 | >1 | CCN(CCOC(=O)Nc1ccccc1)c1ccc2c(-c3ccccc3S(=O)(=O)[N-]S(=O)(=O)C(F)(F)F)c3ccc(=[N+](CC)CC)cc-3oc2c1 [Chemical Formula 9-2] |
| >10 | >10 | >5 | C=C(C)C(=O)OCCNC(=O)OCCN(CC)c1ccc2c(-c3ccccc3S(=O)(=O)[N-]S(=O)(=O)C(F)(F)F)c3cc/c(=[N+](/CC)CCOC(=O)NCCOC(=O)C(=C)C)cc-3oc2c1 [Chemical Formula 10-2] |
| >10 | >10 | >5 | C=C(C)C(=O)OCCNC(=O)OCCN(CC)c1ccc2c(-c3ccccc3S(=O)(=O)[O-])c3cc/c(=[N+](\CCOC(=O)NCCOC(=O)C(=C)C)c4ccccc4)cc-3oc2c1 [Chemical Formula 12-1] |
| >10 | >10 | >5 | C=C(C)C(=O)OCCNC(=O)OCCN(CC)c1ccc2c(-c3ccccc3S(=O)(=O)[N-]S(=O)(=O)C(F)(F)F)c3cc/c(=[N+](\CCOC(=O)NCCOC(=O)C(=C)C)c4ccccc4)cc-3oc2c1 [Chemical Formula 12-2] |
| >10 | >10 | >3 | CCN(CCOC(=O)Nc1ccccc1)c1ccc2c(-c3ccccc3S(=O)(=O)[N-]S(=O)(=O)C(F)(F)F)c3cc/c(=[N+](/CC)CCOC(=O)Nc4ccccc4)cc-3oc2c1 [Chemical Formula 13-2] |
